Source: US9938335B2, “Glucagon and GLP-1 co-agonist compounds” (Eli Lilly and Company, priority 2015, dated 2018)
Values joined by “and” are separate entries in the source; they are usually repeats but may differ in a detail not shown here. Equal entries are not always repeated. Where two headings read alike, the source gives them in different places. Marks after values point to notes of the source that are not given here.

Columns and labels:
hGcg-R = hGcg-R (Homo sapiens, UniProt P47871); experiment: Functional activation of hGcg-R in primary human hepatocytes (cAMP); assay type: cell-based; design: stimulating cAMP production at the endogenous Gcg receptors; endogenous in cells; host or cells: cryopreserved primary human hepatocytes; details: primary human hepatocytes
Chain of hGcg-R (P47871 26-477): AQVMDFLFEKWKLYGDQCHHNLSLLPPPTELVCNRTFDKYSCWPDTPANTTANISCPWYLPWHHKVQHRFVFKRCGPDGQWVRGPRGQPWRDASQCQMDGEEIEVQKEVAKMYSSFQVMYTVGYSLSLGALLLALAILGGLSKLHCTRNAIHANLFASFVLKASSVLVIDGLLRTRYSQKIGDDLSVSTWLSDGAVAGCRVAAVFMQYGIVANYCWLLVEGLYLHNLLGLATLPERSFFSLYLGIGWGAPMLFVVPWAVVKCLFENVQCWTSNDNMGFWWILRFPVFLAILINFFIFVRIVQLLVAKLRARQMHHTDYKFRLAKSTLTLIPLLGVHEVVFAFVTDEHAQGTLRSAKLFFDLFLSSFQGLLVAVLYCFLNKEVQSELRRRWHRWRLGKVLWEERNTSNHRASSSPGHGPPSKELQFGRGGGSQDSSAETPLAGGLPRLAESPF
Description: Primary human hepatocytes are used to determine functional activity of compounds on stimulating cAMP production at the endogenous Gcg receptors. Vials of human primary hepatocytes are frozen in a liquid nitrogen tank. Upon removal, vials are thawed immediately in a water bath having a temperature of 37° C. Cell suspension is then transferred to 50 ml CHRM (Gibco/Life Technologies cat#CM7000 Cryopreserved Hepatocyte Recovery Medium).
The cell suspension is centrifuged at 1,000×g for 10 min. Cell pellets are resuspended in 5 ml of Plating Media after removing the CHRM by aspiration. The Plating Media is prepared by adding entire contents of CM3000 Supplement Packs to 500 ml Williams Media (Gibco/Life Technologies), followed by sterile filtration through a 0.22 μm membrane.
The cell density is counted on hemocytometer, by adding 100 μl of cell suspension to 100 μl Trypan Blue (HyClone Trypan Blue 0.04%, catalog number SV30084.01). The cell suspension is further diluted in the Plating Media to the final cell density of 0.8×10^6 cells per ml. […] 65 ml of the cell suspension is then added to each well of the Collagen coated 96-well plate to final cell density 50,000 cells per well. The cell plate is incubated in a 37° C., 5% CO2 incubator for 3-4 hours.
After 3-4 hours incubation, the media is aspirated and replaced with 100 ml Maintenance Media. The maintenance media is prepared by adding entire contents of CM4000 Supplement Packs to 500 ml Williams Media (Gibco/Life Technologies), followed by sterile filtration through a 0.22 μm membrane. The cell plate is returned to the 37° C., 5% CO2 incubator overnight in preparation for the cAMP assay.
The cell plate is removed from the incubator and the media is removed by gentle aspiration without disturbing the cell monolayer.
cAMP concentration is measured using a HTRF cAMP assay kit (Cisbio): cAMP-d2 conjugate in cell lysis buffer (40 μl) followed by the antibody anti-cAMP-Eu^3+-Cryptate, also in cell lysis buffer (40 μl), is added to the cells of the plate.

DIO mice (C57BL/6) [1] = experiment: Effects on energy expenditure in DIO mice (indirect calorimetry); assay type: in vivo, mouse; details: for Cumulative Heat (Kcal/kg lean mass/3 day): test article 15 nmol/kg, semaglutide 60 nmol/kg sc every three days
Description: Seven to eight months old male DIO mice (C57BL/6) weighing 45-50 g are used in this study to assess the effect of compounds of the present invention on energy metabolism. Animals are individually housed in a temperature-controlled (24° C.) facility with a 12 hour light/dark cycle (lights on 22:00), and free access to food (TD95217)(Teklad) and water. After 2 weeks acclimation to the facility, mice are randomized to treatment groups (N=6/group) based on body weight so each group has similar starting mean body weight. Animals are placed in a PhenoMaster/LabMaster calorimeter (TSE Systems, Chesterfield, Mo.) for 8 days of acclimation.
Heat and […] (RER) are measured by indirect calorimetry as described using an open-circuit calorimetry system. RER is the ratio of the volume of CO2 produced (VCO2) to the volume of O2 consumed (VO2). Heat is calculated with lean body weight considered. The energy expenditure is kcal/kg/3 day and expressed as mean±SEM of 6 mice per group. Statistical significance is assessed by two-way ANOVA followed by Tukey's multiple comparison test.

hGLP-1-R = hGLP-1-R (Homo sapiens, UniProt P43220); experiment: Functional hGLP-1-R assay (cAMP HTRF, HEK-293 clonal cell line); assay type: cell-based; design: expressed in transfected cells; host or cells: HEK-293 clonal cell line over-expressing the receptor
Chain of hGLP-1-R (P43220 24-463): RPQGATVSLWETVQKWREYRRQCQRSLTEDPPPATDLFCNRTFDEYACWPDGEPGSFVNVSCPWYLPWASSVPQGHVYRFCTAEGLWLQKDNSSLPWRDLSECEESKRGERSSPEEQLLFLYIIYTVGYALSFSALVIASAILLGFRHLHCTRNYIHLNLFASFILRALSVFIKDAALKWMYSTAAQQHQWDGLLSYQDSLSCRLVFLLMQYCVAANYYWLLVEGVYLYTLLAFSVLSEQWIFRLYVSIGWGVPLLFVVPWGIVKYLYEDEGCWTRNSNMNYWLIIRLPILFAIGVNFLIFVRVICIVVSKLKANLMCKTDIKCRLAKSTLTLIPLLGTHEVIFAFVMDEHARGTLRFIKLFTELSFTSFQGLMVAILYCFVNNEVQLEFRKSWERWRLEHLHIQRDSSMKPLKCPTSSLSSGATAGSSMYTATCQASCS

[2] = Pharmacokinetics in cynomolgus monkeys; assay type: in vivo; details: for Cmax: read-out: C0 or Cmax
Description: The compounds are administered by a single intravenous or subcutaneous dose of 50 nmole/kg or 250 nmole/kg.
The plasma concentrations of compounds are determined by a LC/MS method. Briefly, a compound of the present invention is extracted from 100% monkey plasma (25 μl) using acetonitrile. Two distinct layers are formed upon centrifugation with the compound located in the liquid layer. An 80 μl aliquot of the supernatant was transferred to a 96-well plate, diluted with 150 μl of water and 25 μl of formic acid. The diluted sample (10 μl) was injected onto a Supelco Analytical Discovery BIO Wide Pore C5-3, 5 cm×1 mm, 3 um column. The column effluent is directed into a Thermo Q-Exactive mass spectrometer for detection and quantitation.

DIO mice (C57BL/6) [3] = experiment: Acute treatment in DIO mice (PCSK9, FGF-21, cholesterol); assay type: in vivo, mouse; details: 30 nmol/kg sc, 16 hours post dose
rat GLP-1-R = target: T1, rat GLP-1-R (Rattus norvegicus, UniProt P32301); experiment: Functional activation of the rat GLP-1-R in insulinoma cell line INS1 832-3 (cAMP); assay type: cell-based
T1 construct: stimulating cAMP production at the endogenous GLP-1 receptors; endogenous in cells; host or cells: INS1 832-3 rat insulinoma cells
T1 sequence (P32301 22-463): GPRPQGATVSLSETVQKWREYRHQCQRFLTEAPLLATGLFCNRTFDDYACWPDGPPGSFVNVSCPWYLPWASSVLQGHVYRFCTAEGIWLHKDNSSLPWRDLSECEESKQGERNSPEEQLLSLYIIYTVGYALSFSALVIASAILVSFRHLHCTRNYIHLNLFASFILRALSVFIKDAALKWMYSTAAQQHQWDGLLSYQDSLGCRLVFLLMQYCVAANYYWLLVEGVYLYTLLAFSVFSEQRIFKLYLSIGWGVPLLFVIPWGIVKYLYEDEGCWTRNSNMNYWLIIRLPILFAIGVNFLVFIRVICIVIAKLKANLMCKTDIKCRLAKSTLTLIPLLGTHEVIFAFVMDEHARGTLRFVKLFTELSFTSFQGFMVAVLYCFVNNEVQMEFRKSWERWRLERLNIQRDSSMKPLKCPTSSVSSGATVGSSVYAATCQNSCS
Description: Performance of the assay requires detachment of the cells from culture flasks using Enzyme Free Cell Stripper and pelleted by centrifugation at 1000 rpm for 5 minutes at room temperature. […] After 2 hours starvation, cells are treated with compound by adding 10 μl of 5× compound dilutions into the cell plates (n=2) and incubated in a 37° C., 5% CO2 incubator for 30 minutes.
cAMP concentration is measured using a HTRF cAMP assay kit (Cisbio): cAMP-d2 conjugate in cell lysis buffer (20 μl) followed by the antibody anti-cAMP-Eu^3+-Cryptate, also in cell lysis buffer (20 μl), is added to the cells of the plate.
The assay is performed with duplicated plates.

[4] = Table 9: single IV 50 nmol/kg, individual animals
[5] = Table 9: single SC 50 nmol/kg, individual animals
[6] = Table 9: single SC 250 nmol/kg, individual animals
[7] = male, cynomolgus monkey, plasma, iv, 50 nmol/kg, Table 9: single IV 50 nmol/kg, mean
[8] = male, cynomolgus monkey, plasma, sc, 50 nmol/kg, Table 9: single SC 50 nmol/kg, individual animals
[9] = male, cynomolgus monkey, plasma, sc, 50 nmol/kg, Table 9: single SC 50 nmol/kg, mean
[10] = male, cynomolgus monkey, plasma, sc, 250 nmol/kg, Table 9: single SC 250 nmol/kg, individual animals
[11] = male, cynomolgus monkey, plasma, sc, 250 nmol/kg, Table 9: single SC 250 nmol/kg, mean

EC50 (hGcg-R; cAMP, 1 hour): 159 nM
Emax (hGLP-1-R; HEK293): 107 ± 7%
EC50 (hGLP-1-R; cAMP, 60 minute incubation, 0.25% FBS, 0.05% BSA, geometric mean, read-out: Human GLP-1-R EC50, nM ± SEM (n)): 83.1 ± 16.8 nM
AUC(0-inf) [2, 4]: 93.174 µM·h
CL/F [2, 4]: 12.7 mL/day/kg and 13 mL/day/kg
Cmax [2, 4]: 1100 nM
T1/2 ([2]; Table 9: single IV 50 nmol/kg, male cynomolgus monkeys, individual animals): 131 h
CL/F ([2]; Table 9: single IV 50 nmol/kg, mean): 12.7 mL/day/kg
AUC(0-inf) [2, 5]: 82.792 µM·h
CL/F [2, 5]: 14.4 mL/day/kg
T1/2 [2, 5]: 106 h
Cmax [2, 5]: 452 nM
AUC(0-inf) [2, 6]: 540.175 µM·h
CL/F [2, 6]: 11 mL/day/kg
T1/2 [2, 6]: 104 h
Cmax [2, 6]: 3620 nM
AUC(0-inf) ([2]; cynomolgus monkey, plasma, sc, 250 nmol/kg, Table 9: single SC 250 nmol/kg, mean, read-out: AUC0-inf): 485 µM·h
CL/F ([2]; cynomolgus monkey, plasma, sc, 250 nmol/kg, Table 9: single SC 250 nmol/kg, mean, read-out: CL/F (converted)): 12.5 mL/day/kg
AUC(0-inf) ([2]; male, cynomolgus monkey, plasma, iv, 50 nmol/kg, Table 9: single IV 50 nmol/kg, individual animals, read-out: AUC0-inf): 94.8 µM·h
Cmax ([2]; male, cynomolgus monkey, plasma, iv, 50 nmol/kg, Table 9: single IV 50 nmol/kg, individual animals): 1020 nM
half-life ([2]; male, cynomolgus monkey, plasma, iv, 50 nmol/kg, Table 9: single IV 50 nmol/kg, male cynomolgus monkeys, individual animals): 88 h
half-life [2, 7]: 110 h
AUC(0-inf) ([2]; male, cynomolgus monkey, plasma, iv, 50 nmol/kg, Table 9: single IV 50 nmol/kg, mean, read-out: AUC0-inf): 94 µM·h
Cmax [2, 7]: 1060 nM
Tmax [2, 8]: 24 h
half-life [2, 8]: 137 h
AUC(0-inf) ([2]; male, cynomolgus monkey, plasma, sc, 50 nmol/kg, Table 9: single SC 50 nmol/kg, individual animals, read-out: AUC0-inf): 101 µM·h
Cmax [2, 8]: 474 nM
CL/F ([2]; male, cynomolgus monkey, plasma, sc, 50 nmol/kg, Table 9: single SC 50 nmol/kg, individual animals, read-out: CL/F (converted)): 12 mL/day/kg
Tmax [2, 9]: ~24 h
half-life [2, 9]: 122 h
AUC(0-inf) ([2]; male, cynomolgus monkey, plasma, sc, 50 nmol/kg, Table 9: single SC 50 nmol/kg, mean, read-out: AUC0-inf): 91.9 µM·h
Cmax [2, 9]: 463 nM
CL/F ([2]; male, cynomolgus monkey, plasma, sc, 50 nmol/kg, Table 9: single SC 50 nmol/kg, mean, read-out: CL/F (converted)): 13.2 mL/day/kg
Tmax [2, 10]: 12 h
half-life [2, 10]: 115 h
AUC(0-inf) ([2]; male, cynomolgus monkey, plasma, sc, 250 nmol/kg, Table 9: single SC 250 nmol/kg, individual animals, read-out: AUC0-inf): 430 µM·h
Cmax [2, 10]: 3640 nM
CL/F ([2]; male, cynomolgus monkey, plasma, sc, 250 nmol/kg, Table 9: single SC 250 nmol/kg, individual animals, read-out: CL/F (converted)): 13.9 mL/day/kg
Tmax [2, 11]: 12 h
half-life [2, 11]: 110 h
Cmax [2, 11]: 3630 nM
EC50 (rat GLP-1-R; INS1 832-3 cells, cAMP, 30 minutes): 62 nM
Emax (rat GLP-1-R; INS1, percent of maximal response with native GLP-1 peptide at 300 nM): 104%
Structure (SMILES): CC(C)C[C@H](NC(=O)[C@H](CC(C)C)NC(=O)[C@H](Cc1c[nH]c2ccccc12)NC(=O)[C@H](CCC(=O)O)NC(=O)[C@@H](NC(=O)[C@H](Cc1ccccc1)NC(=O)[C@H](CCC(=O)O)NC(=O)[C@H](CCCCNC(=O)COCCOCCNC(=O)COCCOCCNC(=O)CC[C@H](NC(=O)CCCCCCCCCCCCCCCCCCC(=O)O)C(=O)O)NC(=O)[C@H](C)NC(=O)[C@H](CCCCN)NC(=O)[C@H](CCCCN)NC(=O)[C@H](CCC(=O)O)NC(=O)[C@H](CC(=O)O)NC(=O)[C@H](CC(C)C)NC(=O)[C@H](Cc1ccc(O)cc1)NC(=O)[C@H](CCCCN)NC(=O)[C@H](CO)NC(=O)[C@H](Cc1ccc(O)cc1)NC(=O)[C@H](CC(=O)O)NC(=O)[C@H](CO)NC(=O)[C@@H](NC(=O)[C@H](Cc1ccccc1)NC(=O)[C@@H](NC(=O)CNC(=O)[C@H](CCC(N)=O)NC(=O)C(C)(C)NC(=O)[C@@H](N)Cc1c[nH]cn1)[C@@H](C)O)[C@@H](C)O)C(C)C)C(=O)N[C@@H](CCC(=O)O)C(=O)NCC(=O)NCC(=O)N1CCC[C@H]1C(=O)N[C@@H](CO)C(=O)N[C@@H](CO)C(=O)NCC(N)=O [Compound 2]
cAMP production (hGcg-R; data not shown): increased cAMP production in a dose-dependent manner
metabolic rate (DIO mice (C57BL/6) [1]; DIO mice, chronic treatment): increased their metabolic rate starting from Week 2
Cumulative Heat (Kcal/kg lean mass/3 day) (DIO mice (C57BL/6) [1]; Day 1 to Day 4): 1746 ± 96 Kcal/kg lean mass/3 day
Cumulative Heat (Kcal/kg lean mass/3 day) (DIO mice (C57BL/6) [1]; Day 4 to Day 7): 1778 ± 132 Kcal/kg lean mass/3 day
Cumulative Heat (Kcal/kg lean mass/3 day) (DIO mice (C57BL/6) [1]; Day 7 to Day 10): 2549 ± 129 Kcal/kg lean mass/3 day
Cumulative Heat (Kcal/kg lean mass/3 day) (DIO mice (C57BL/6) [1]; Day 10 to Day 13): 2568 ± 147 Kcal/kg lean mass/3 day
Cholesterol (% of vehicle) (DIO mice (C57BL/6) [3]): 80.6* % of vehicle
FGF-21 (% of vehicle) (DIO mice (C57BL/6) [3]): 465* % of vehicle
PCSK9 (% of vehicle) (DIO mice (C57BL/6) [3]): 12.8* % of vehicle
cAMP production (rat GLP-1-R; INS1 832-3 cells, data not shown): increased cAMP production in a dose-dependent manner
